Each molecule was assayed against human RORgammaT-Ligand Binding Domain (LBD) (Homo sapiens (Human), UniProt P51449) (assay: RORγ-Ligand Binding Domain TR-FRET Assay (co-activator peptide SRC1_2 recruitment)). Details: HIS-tagged RORγ-LBD 3 nM, biotinylated SRC1 LXXLL peptide 100 nM, incubated overnight at 4° C., 665 nm/615 nm ratio.
Type: biochemical
Summary of the method: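 E. coli-expressed, Ni2+-purified HIS-tagged human RORγ-LBD at 3 nM final in 50 mM Tris pH 7.0, 50 mM KCl, 1 mM EDTA, 0.1 mM DTT, 100 μg/mL delipidated BSA. TR-FRET read-out of SRC1_2 co-activator peptide recruitment; compounds dispensed acoustically.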

Sequence of human RORgammaT-Ligand Binding Domain (LBD) (P51449 269-508): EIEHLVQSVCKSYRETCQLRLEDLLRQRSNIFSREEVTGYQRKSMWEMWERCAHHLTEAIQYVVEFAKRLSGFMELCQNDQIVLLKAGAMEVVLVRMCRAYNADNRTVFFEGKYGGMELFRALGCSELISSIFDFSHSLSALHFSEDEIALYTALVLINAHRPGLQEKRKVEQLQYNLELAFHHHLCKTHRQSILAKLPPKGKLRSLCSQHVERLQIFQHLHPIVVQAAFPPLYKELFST

SMILES | IC50 [nM]
COc1cncc(S(=O)(=O)N2C[C@H](CCC(=O)O)Oc3ccc(NC(=O)OC(C)(C)C(F)(F)F)cc32)c1 [Example 6BY, 3-[(2S)-4-[(5-methoxypyridin-3-yl)sulfonyl]-6-{[(2,2,2-trifluoro-1,1-dimethylethoxy)carbonyl]amino}-3,4-dihydro-2H-1,4-benzoxazin-2-yl]propanoic acid] | 27.1
CCOc1sc(CC)nc1S(=O)(=O)N1C[C@H](CCC(=O)O)Oc2ccc(NC(=O)OC(C)(C)C(F)(F)F)cc21 [Example 6CC, 3-[(2S)-4-[(5-ethoxy-2-ethyl-1,3-thiazol-4-yl)sulfonyl]-6-{[(2,2,2-trifluoro-1,1-dimethylethoxy)carbonyl]amino}-3,4-dihydro-2H-1,4-benzoxazin-2-yl]propanoic acid] | 12.4
CCOc1sc(C2CC2)nc1S(=O)(=O)N1C[C@H](CCC(=O)O)Oc2ccc(NC(=O)OC(C)(C)C(F)(F)F)cc21 [Example 6CD, 3-[(2S)-4-[(2-cyclopropyl-5-ethoxy-1,3-thiazol-4-yl)sulfonyl]-6-{[(2,2,2-trifluoro-1,1-dimethylethoxy)carbonyl]amino}-3,4-dihydro-2H-1,4-benzoxazin-2-yl]propanoic acid] | 14.4
CCOc1sc(C(F)(F)F)nc1S(=O)(=O)N1C[C@H](CCC(=O)O)Oc2ccc(NC(=O)OC(C)(C)C(F)(F)F)cc21 [Example 6CE, 3-[(2S)-4-{[5-ethoxy-2-(trifluoromethyl)-1,3-thiazol-4-yl]sulfonyl}-6-{[(2,2,2-trifluoro-1,1-dimethylethoxy)carbonyl]amino}-3,4-dihydro-2H-1,4-benzoxazin-2-yl]propanoic acid] | 67.5
CCc1nc(S(=O)(=O)N2C[C@H](CCC(=O)O)Oc3ccc(NC(=O)OC(C)(C)C(F)(F)F)cc32)c(OC(C)C)s1 [Example 6CF, 3-[(2S)-4-{[2-ethyl-5-(1-methylethoxy)-1,3-thiazol-4-yl]sulfonyl}-6-{[(2,2,2-trifluoro-1,1-dimethylethoxy)carbonyl]amino}-3,4-dihydro-2H-1,4-benzoxazin-2-yl]propanoic acid] | 20
CCc1nc(S(=O)(=O)N2C[C@H](CCC(=O)O)Oc3ccc(NC(=O)OC(C)(C)C(F)(F)F)cc32)c(OCC(F)(F)F)s1 [Example 6CG, 3-[(2S)-4-{[2-ethyl-5-(2,2,2-trifluoroethoxy)-1,3-thiazol-4-yl]sulfonyl}-6-{[(2,2,2-trifluoro-1,1-dimethylethoxy)carbonyl]amino}-3,4-dihydro-2H-1,4-benzoxazin-2-yl]propanoic acid] | 22.9
CC(C)(OC(=O)Nc1ccc2c(c1)N(S(=O)(=O)c1cc(C3CC3)ccc1F)C[C@H](CCC(=O)O)O2)C(F)(F)F [Example 6CH, 3-[(2S)-4-[(5-cyclopropyl-2-fluorophenyl)sulfonyl]-6-{[(2,2,2-trifluoro-1,1-dimethylethoxy)carbonyl]amino}-3,4-dihydro-2H-1,4-benzoxazin-2-yl]propanoic acid] | 18.1
CC(C)(OC(=O)Nc1ccc2c(c1)N(S(=O)(=O)c1cccc(C#N)c1)C[C@H](CCC(=O)O)O2)C(F)(F)F [Example 6L, (S)-3-(4-((3-cyanophenyl)sulfonyl)-6-((((1,1,1-trifluoro-2-methylpropan-2-yl)oxy)carbonyl)amino)-3,4-dihydro-2H-benzo[b][1,4]oxazin-2-yl)propanoic acid] | 11
CC(C)(OC(=O)Nc1ccc2c(c1)N(S(=O)(=O)c1ccc(F)c(F)c1)C[C@H](CCC(=O)O)O2)C(F)(F)F [Example 6N, (S)-3-(4-((3,4-difluorophenyl)sulfonyl)-6-((((1,1,1-trifluoro-2-methylpropan-2-yl)oxy)carbonyl)amino)-3,4-dihydro-2H-benzo[b][1,4]oxazin-2-yl)propanoic acid] | 14
CC(C)(OC(=O)Nc1ccc2c(c1)N(S(=O)(=O)c1cccc(OC(F)(F)F)c1)C[C@H](CCC(=O)O)O2)C(F)(F)F [Example 6S, (S)-3-(6-((((1,1,1-trifluoro-2-methylpropan-2-yl)oxy)carbonyl)amino)-4-((3-(trifluoromethoxy)phenyl)sulfonyl)-3,4-dihydro-2H-benzo[b][1,4]oxazin-2-yl)propanoic acid] | 6
CC(C)(OC(=O)Nc1ccc2c(c1)N(S(=O)(=O)c1cccc(OC(F)F)c1)C[C@H](CCC(=O)O)O2)C(F)(F)F [Example 6T, (S)-3-(4-((3-(difluoromethoxy)phenyl)sulfonyl)-6-((((1,1,1-trifluoro-2-methylpropan-2-yl)oxy)carbonyl)amino)-3,4-dihydro-2H-benzo[b][1,4]oxazin-2-yl)propanoic acid] | 4
CC(C)(OC(=O)Nc1ccc2c(c1)N(S(=O)(=O)c1cccc(S(C)(=O)=O)c1)C[C@H](CCC(=O)O)O2)C(F)(F)F [Example 6X, (S)-3-(4-((3-(methylsulfonyl)phenyl)sulfonyl)-6-((((1,1,1-trifluoro-2-methylpropan-2-yl)oxy)carbonyl)amino)-3,4-dihydro-2H-benzo[b][1,4]oxazin-2-yl)propanoic acid] | 15

Continued, values first:

IC50 [nM] | SMILES
61.8 | CC(C)(C[C@H]1CN(S(=O)(=O)c2cncc(C#N)c2)c2cc(NC(=O)OC(C)(C)C(F)(F)F)ccc2O1)C(=O)O [Example 12M, 3-[(2S)-4-[(5-cyanopyridin-3-yl)sulfonyl]-6-{[(2,2,2-trifluoro-1,1-dimethylethoxy)carbonyl]ami-no}-3,4-dihydro-2H-1,4-benzoxazin-2-yl]-2,2-dimethylpropanoic acid]
9.22 | CCOc1sc(CC)nc1S(=O)(=O)N1C[C@H](CC(C)(C)C(=O)O)Oc2ccc(NC(=O)OC(C)(C)C(F)(F)F)cc21 [Example 12P, 3-[(2S)-4-[(5-ethoxy-2-ethyl-1,3-thiazol-4-yl)sulfonyl]-6-{[(2,2,2-trifluoro-1,1-dimethylethoxy)carbonyl]ami-no}-3,4-dihydro-2H-1,4-benzoxazin-2-yl]-2,2-dimethylpropanoic acid]
12.6 | CCc1nc(S(=O)(=O)N2C[C@H](CC(C)(C)C(=O)O)Oc3ccc(NC(=O)OC(C)(C)C(F)(F)F)cc32)c(OCC(F)(F)F)s1 [Example 12R, 3-[(2S)-4-{[2-ethyl-5-(2,2,2-trifluoroethoxy)-1,3-thiazol-4-yl]sulfonyl}-6-{[(2,2,2-trifluoro-1,1-dimethylethoxy)carbonyl]ami-no}-3,4-dihydro-2H-1,4-benzoxazin-2-yl]-2,2-dimethylpropanoic acid]
16.4 | CCc1nc(S(=O)(=O)N2C[C@H](CC(C)(C)C(=O)O)Oc3ccc(NC(=O)OC(C)(C)C(F)(F)F)cc32)c(OC(C)C)s1 [Example 12S, 3-[(2S)-4-{[2-ethyl-5-(1-methylethoxy)-1,3-thiazol-4-yl]sulfonyl}-6-{[(2,2,2-trifluoro-1,1-dimethylethoxy)carbonyl]ami-no}-3,4-dihydro-2H-1,4-benzoxazin-2-yl]-2,2-dimethylpropanoic acid]
14.4 | CC(C)(C[C@H]1CN(S(=O)(=O)c2c(Cl)nn3c2CCCC3)c2cc(NC(=O)OC(C)(C)C(F)(F)F)ccc2O1)C(=O)O [Example 12Y, 3-[(2S)-4-[(2-chloro-4,5,6,7-tetrahydropyrazolo[1,5-a]pyridin-3-yl)sulfonyl]-6-{[(2,2,2-trifluoro-1,1-dimethylethoxy)carbonyl]ami-no}-3,4-dihydro-2H-1,4-benzoxazin-2-yl]-2,2-dimethylpropanoic acid]
14.9 | Cc1nn(C(F)F)cc1S(=O)(=O)N1C[C@H](CC(C)(C)C(=O)O)Oc2ccc(NC(=O)OC(C)(C)C(F)(F)F)cc21 [Example 12o, 3-[(2S)-4-{[1-(difluoromethyl)-3-methyl-1H-pyrazol-4-yl]sulfonyl}-6-{[(2,2,2-trifluoro-1,1-dimethylethoxy)carbonyl]ami-no}-3,4-dihydro-2H-1,4-benzoxazin-2-yl]-2,2-dimethylpropanoic acid]
17.5 | CC(C)(OC(=O)Nc1ccc2c(c1)N(S(=O)(=O)c1cccc(C3CC3)c1)C[C@H](CC1(C(=O)O)CC1)O2)C(F)(F)F [Example 14B, (S)-1-((4-((3-cyclopropylphenyl)sulfonyl)-6-((((1,1,1-trifluoro-2-methylpropan-2-yl)oxy)carbonyl)amino)-3,4-dihydro-2H-benzo[b][1,4]oxazin-2-yl)methyl)cyclopropanecarboxy-lic acid]
36.7 | CC(C)(OC(=O)Nc1ccc2c(c1)N(S(=O)(=O)c1cccc(C3CC3)c1)C[C@@H](CC1(C(=O)O)CC1)O2)C(F)(F)F [Example 14D, (R)-1-((4-((3-cyclopropylphenyl)sulfonyl)-6-((((1,1,1-trifluoro-2-methylpropan-2-yl)oxy)carbonyl)amino)-3,4-dihydro-2H-benzo[b][1,4]oxazin-2-yl)mehtyl)cyclopropanecarboxy-lic acid]
22.4 | CC(C)(OC(=O)Nc1ccc2c(c1)N(S(=O)(=O)c1ccc(F)c(C(F)(F)F)c1)C[C@H]([C@H]1C[C@H]1C(=O)O)O2)C(F)(F)F [Example 22A, (1R,2S)-2-((S)-4-((4-fluoro-3-(trifluoromethyl)phenyl)sulfonyl)-6-((((1,1,1-trifluoro-2-methylpropan-2-yl)oxy)carbonyl)amino)-3,4-dihydro-2H-benzo[b][1,4]oxazin-2-yl)cyclopropanecarboxylic acid]
13.5 | CC(C)(OC(=O)Nc1ccc2c(c1)N(S(=O)(=O)c1ccc(F)c(C(F)(F)F)c1)C[C@H]([C@@H]1C[C@@H]1C(=O)O)O2)C(F)(F)F [Example 22B, (1S,2R)-2-((S)-4-((4-fluoro-3-(trifluoromethyl)phenyl)sulfonyl)-6-((((1,1,1-trifluoro-2-methylpropan-2-yl)oxy)carbonyl)amino)-3,4-dihydro-2H-benzo[b][1,4]oxazin-2-yl)cyclopropanecarboxylic acid]

— patent publication US9783511B2, “Carbamate benzoxazine propionic acids and acid derivatives for modulation of RORgamma activity and the treatment of disease” (Merck Sharp & Dohme Corp., priority 2013, dated 2017)
